Source: patent US8883963B2 (Cadila Healthcare Limited, priority 2007, dated 2014)

Assays:
Human GLP-1 receptor = biological target: T1, Human GLP-1 receptor (Homo sapiens, UniProt P43220); assay: In vitro Human GLP-1 R agonist activity (cyclic AMP determination) in CHO/human GLP1R cells; assay type: cell-based
T1 construct: The full-length cDNA was cloned in pcDNA3.1(+); expressed in transfected cells
Procedure: The novel peptidomimetics were screened for Human GLP-1 receptor (HGLP-1 R) agonist activity (in vitro), using the cAMP cell-based assay, in stably transfected CHO/human GLP1R cells. […] CHO cells were grown in Ham's F12 medium containing L-Glutamine (2 mM), HEPES (25 mM), NaHCO3 (1.1 g/L) and supplemented with NewBorn Calf Serum (NBCS; 10%), Penicillin (50 U/ml (v/v)) and Streptomycin (50 ug/ml (v/v)). Cells were split every 3 days 1:8.
The cDNA encoding the human GLP-1 receptor was isolated by RT-PCR according to standard protocol. The full-length cDNA was cloned in pcDNA3.1(+). […] Clones expressing the receptor were generated by G418 (800 μg/ml active, Sigma) selection. The stable clones were thereafter maintained at 500 ug/ml (G418). The selected clone was used between passages 9-25 for cAMP assays.
The trypsin was inactivated using Ham's F12 medium containing 10% NBCS and the cells were suspended in 2 ml of complete medium. […] The medium was aspirated off from the 12 well plate and the cells were washed once using Ham's F12 (plain). […] The cells were incubated with the test compounds for 30 min in humidified atmosphere and 37° C. After the incubation, the medium was removed and cells were washed once with plain Ham's F12. Subsequently, the cells were lysed by adding 500 ul of ice cold 0.1 N HCl to each well and shaking for 30 minutes at 200 rpm. The cells were then scrapped, the lysate was collected in micro centrifuge tubes and centrifuged at 12000 rpm for 10 min to remove the debris. 300 ul of supernatant from each micro-centrifuge tube was then removed into a glass tube and dried under N2 for 30 min, for cAMP estimation. The total cAMP was estimated from the sample according to the manufacturer's protocol using Cyclic AMP immunoassay kit (R&D systems, Minneapolis. MN). The remaining supernatant is used to determine the protein concentration using micro BCA (Sigma). Data is calculated as percent of control (Vehicle: water) and expressed as Mean±SD.

human glucagon receptor = biological target: T2, human glucagon receptor (Homo sapiens, UniProt P47871); assay: In vitro human glucagon antagonist activity (inhibition of cAMP production) in CHO/human glucagon R cells; assay type: cell-based; details: with saturated concentration of glucagon peptide
T2 construct: The full-length cDNA was cloned in pcDNA3.1 (Invitrogen); expressed in transfected cells

DPP IV = DPP IV (Homo sapiens, UniProt P27487); assay: Stability against DPP IV enzyme; assay type: in vitro ADME; details: 37° C.; for % degradation of peptidomimetics in 24 h when incubated with DPP-IV enzyme: 2 μM peptidomimetic; for half-life at 2 μM: DPP IV enzyme, pH 7.8, 2 μM peptidomimetic, read-out: half-life (t1/2) when incubated with DPP-IV enzyme
Procedure: (§1) Reactions were terminated by the addition of TFA/H2O (15 mL, 10% (v/v)). […] The column was equilibrated with TFA/H20, at a flow rate of 1 mL/min.

[1] = Stability in human plasma; assay type: in vitro ADME; details: 2 μM peptidomimetic, pooled human plasma, 37° C.; for half-life at 2 μM: pH 7.8, read-out: half-life (t1/2) when incubated with human plasma
Procedure: as §1

[2] = Stability in simulated gastric fluid; assay type: in vitro ADME; details: 2 μM peptidomimetic, simulated gastric fluid pH 1.5, 37° C.; for half-life at 2 μM: read-out: half-life (t1/2) when incubated with simulated gastric fluid
Procedure: as §1

[3] = Stability in simulated intestinal fluid; assay type: in vitro ADME; details: 2 μM peptidomimetic, simulated intestinal fluid pH 7.5, 37° C.; for half-life at 2 μM: read-out: half-life (t1/2) when incubated with simulated intestinal fluid
Procedure: as §1

[4] = Stability in liver microsomes; assay type: in vitro ADME; details: 2 μM peptidomimetic, human liver microsomes, 37° C.; for half-life at 2 μM: pH 7.8, read-out: half-life (t1/2) when incubated with liver microsomes
Procedure: as §1

T1 sequence (P43220 24-463): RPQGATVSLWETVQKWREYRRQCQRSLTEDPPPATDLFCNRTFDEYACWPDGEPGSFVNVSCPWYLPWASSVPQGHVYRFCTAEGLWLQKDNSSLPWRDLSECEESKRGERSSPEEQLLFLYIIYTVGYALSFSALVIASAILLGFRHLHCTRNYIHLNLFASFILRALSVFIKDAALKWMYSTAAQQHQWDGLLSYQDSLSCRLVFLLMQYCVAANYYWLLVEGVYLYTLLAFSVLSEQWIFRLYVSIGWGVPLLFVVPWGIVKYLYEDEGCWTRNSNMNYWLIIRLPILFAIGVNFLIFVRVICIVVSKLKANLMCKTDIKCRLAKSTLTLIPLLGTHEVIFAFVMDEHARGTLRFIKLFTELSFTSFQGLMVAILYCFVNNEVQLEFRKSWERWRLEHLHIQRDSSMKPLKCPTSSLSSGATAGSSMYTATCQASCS
T2 sequence (P47871 26-477): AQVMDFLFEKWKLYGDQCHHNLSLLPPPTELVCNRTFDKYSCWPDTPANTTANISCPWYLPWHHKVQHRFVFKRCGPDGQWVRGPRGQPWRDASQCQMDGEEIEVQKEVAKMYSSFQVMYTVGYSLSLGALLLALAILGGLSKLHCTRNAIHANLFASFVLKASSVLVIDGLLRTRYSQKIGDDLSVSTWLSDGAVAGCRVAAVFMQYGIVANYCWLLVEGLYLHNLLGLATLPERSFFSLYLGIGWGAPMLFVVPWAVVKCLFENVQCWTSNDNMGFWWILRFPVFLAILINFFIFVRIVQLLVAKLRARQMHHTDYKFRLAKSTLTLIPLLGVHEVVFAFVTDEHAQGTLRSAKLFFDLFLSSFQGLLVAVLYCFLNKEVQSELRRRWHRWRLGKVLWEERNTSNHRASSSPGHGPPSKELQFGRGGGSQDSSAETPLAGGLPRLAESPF
DPP IV, sequence (P27487 whole entry, species assumed): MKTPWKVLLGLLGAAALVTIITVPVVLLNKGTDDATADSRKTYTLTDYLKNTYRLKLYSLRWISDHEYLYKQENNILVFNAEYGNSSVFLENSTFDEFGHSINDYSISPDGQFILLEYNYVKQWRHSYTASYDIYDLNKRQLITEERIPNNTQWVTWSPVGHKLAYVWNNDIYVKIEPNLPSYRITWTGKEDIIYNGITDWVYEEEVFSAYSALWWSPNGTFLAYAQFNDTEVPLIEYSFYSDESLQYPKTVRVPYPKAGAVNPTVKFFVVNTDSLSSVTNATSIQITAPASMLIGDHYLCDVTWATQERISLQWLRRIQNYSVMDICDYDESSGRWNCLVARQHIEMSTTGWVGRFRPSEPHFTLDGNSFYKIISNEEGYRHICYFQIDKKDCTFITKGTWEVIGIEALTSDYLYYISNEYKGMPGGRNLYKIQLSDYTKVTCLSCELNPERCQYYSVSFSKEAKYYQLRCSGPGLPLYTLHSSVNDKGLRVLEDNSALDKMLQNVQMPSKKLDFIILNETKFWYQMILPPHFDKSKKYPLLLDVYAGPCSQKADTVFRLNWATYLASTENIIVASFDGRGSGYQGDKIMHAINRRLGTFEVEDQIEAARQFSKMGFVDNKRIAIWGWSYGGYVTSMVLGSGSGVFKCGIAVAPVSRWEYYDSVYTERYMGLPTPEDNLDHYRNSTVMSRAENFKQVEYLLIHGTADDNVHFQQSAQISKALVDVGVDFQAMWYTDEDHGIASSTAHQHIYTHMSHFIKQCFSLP

Structure (SMILES) | Human GLP-1 R activity (cAMP release), % activity with respect to control (Human GLP-1 receptor; 1 nM test compound) [%] | Human GLP-1 R activity (cAMP release), % activity with respect to control (Human GLP-1 receptor; 10 nM test compound) [%] | Human GLP-1 R activity (cAMP release), % activity with respect to control (Human GLP-1 receptor; 100 nM test compound) [%] | Human GLP-1 R activity (cAMP release), % activity with respect to control (Human GLP-1 receptor; 1 μM test compound) [%] | Human GLP-1 R activity (cAMP release), % activity with respect to control (Human GLP-1 receptor; 10 μM test compound) [%] | Human Glucagon receptor antagonistic activity shown as inhibition of cAMP production of Glucagon peptide (human glucagon receptor; 1 nM test compound) [pmol/ml/μg prt] | Human Glucagon receptor antagonistic activity shown as inhibition of cAMP production of Glucagon peptide (human glucagon receptor; 10 nM test compound) [pmol/ml/μg prt] | Human Glucagon receptor antagonistic activity shown as inhibition of cAMP production of Glucagon peptide (human glucagon receptor; 100 nM test compound) [pmol/ml/μg prt] | Human Glucagon receptor antagonistic activity shown as inhibition of cAMP production of Glucagon peptide (human glucagon receptor; 1 μM test compound) [pmol/ml/μg prt] | Human Glucagon receptor antagonistic activity shown as inhibition of cAMP production of Glucagon peptide (human glucagon receptor; 10 μM test compound) [pmol/ml/μg prt] | % degradation of peptidomimetics in 24 h when incubated with DPP-IV enzyme (DPP IV) [%] | half-life at 2 μM (DPP IV) [h] | % degradation of peptidomimetics in 24 h when incubated with human plasma [1] [%] | half-life at 2 μM [1] [h] | % degradation of peptidomimetics in 24 h when incubated with simulated gastric fluid [2] [%] | % degradation of peptidomimetics in 24 h when incubated with simulated intestinal fluid [3] [%] | % degradation of peptidomimetics in 24 h when incubated with liver microsomes [4] [%] | half-life at 2 μM [4] [h] | half-life at 2 μM [2] [h] | half-life at 2 μM [3] [h] | other results
CCc1cc(OC)ccc1-c1ccc(CC(NC(=O)[C@H](CC(=O)O)NC(=O)[C@H](CO)NC(=O)[C@@H](NC(=O)[C@H](Cc2ccccc2)NC(=O)[C@@H](NC(=O)CNC(=O)[C@H](CCC(N)=O)NC(=O)C2(NC(=O)[C@@H](N)Cc3c[nH]cn3)CC2)[C@@H](C)O)[C@@H](C)O)C(=O)NC(CCCc2ccc(F)cc2C(F)(F)F)C(N)=O)cc1 (single isomer, unassigned) [compound 72] | 45 ± 0.022 | 84 ± 0.46 | 90 ± 0.41 | 99 ± 0.66 | 99 ± 0.03 | 9 ± 0.11 | 6 ± 0.12 | 5 ± 0.14 | 3 ± 0.22 | 0 | 86 | 9 | 70 | 8 | 15 | 41 | 77 | 1 | – | – | half-life (t1/2) when incubated with simulated gastric fluid [2]: (8) h; half-life (t1/2) when incubated with simulated intestinal fluid [3]: (6) h
CCc1cc(OC)ccc1-c1ccc(CC(NC(=S)[C@H](CC(=O)O)NC(=O)[C@H](CO)NC(=O)[C@@H](NC(=O)C(C)(Cc2ccccc2F)NC(=O)[C@@H](NC(=O)CNC(=O)C(CCC#N)NC(=O)C(C)(C)NC(=O)[C@@H](N)Cc2c[nH]cn2)[C@H](C)O)[C@H](C)O)C(=S)NC(CCCc2ccccc2)C(N)=O)cc1 (single isomer, unassigned) [compound 178] | 39 ± 0.12 | 80 ± 0.15 | 86 ± 0.18 | 95 ± 0.03 | 98 ± 0.09 | 0 | 0 | 0 | 0 | 0 | 00 | > 24 | 00 | > 24 | 00 | 00 | 35 | – | > 24 | > 24 | half-life (t1/2) when incubated with liver microsomes [4]: (5) h
CCc1cc(OC)ccc1-c1ccc(CC(CNC(CCCc2ccccc2)C(N)=O)NC[C@H](CC(=O)O)NC(=O)[C@H](CO)NC(=O)[C@@H](NC(=O)C(C)(Cc2ccccc2F)NC(=O)[C@@H](NC(=O)CNC(=O)[C@H](CCC(N)=O)NC(=O)C(C)(C)NC(=O)[C@H](Cc2c[nH]cn2)NC(=O)OC)[C@@H](C)O)[C@@H](C)O)cc1 (single isomer, unassigned) [compound 194] | 38 ± 0.11 | 77 ± 0.16 | 85 ± 0.11 | 94 ± 0.08 | 97 ± 0.05 | 18 ± 0.12 | 16 ± 0.11 | 12 ± 0.13 | 8 ± 0.12 | 6 ± 0.18 | 00 | > 24 | 00 | > 24 | 43 | 00 | 84 | 2 | 4 | > 24 | –
CCc1cc(OC)ccc1-c1ccc(CC(CNC(CCCc2ccccc2)C(N)=O)NC[C@H](CC(=O)O)NC(=O)[C@H](CO)NC(=O)[C@@H](NC(=O)C(C)(Cc2ccccc2F)NC(=O)[C@@H](NC(=O)CNC(=O)[C@H](CCC(N)=O)NC(=O)C(C)(C)NC(=O)[C@H](Cc2c[nH]cn2)NC(=O)OC)[C@H](C)O)[C@H](C)O)cc1 (single isomer, unassigned) [compound 198] | 82 ± 0.22 | 87 ± 0.12 | 92 ± 0.14 | 99 ± 0.22 | 99 ± 0.26 | – | – | – | – | – | 00 | > 24 | 00 | > 24 | 49 | 00 | 82 | 2 | 4 | > 24 | –
CCc1cc(OC)ccc1-c1ccc(CC(CNC(CCCc2ccccc2F)C(N)=O)NC[C@H](CC(=O)O)NC(=O)[C@H](CO)NC(=O)[C@@H](NC(=O)C(C)(Cc2ccccc2F)NC(=O)[C@@H](NC(=O)CNC(=O)[C@H](CCC(N)=O)NC(=O)C(C)(C)NC(=O)[C@@H](N)Cc2c[nH]cn2)[C@H](C)O)[C@H](C)O)cc1 (single isomer, unassigned) [compound 203] | 86 ± 0.11 | 99 ± 0.09 | 99 ± 0.06 | 99 ± 0.14 | 99 ± 0.19 | – | – | – | – | – | 00 | > 24 | 00 | > 24 | 00 | 00 | 31 | – | > 24 | > 24 | half-life (t1/2) when incubated with liver microsomes [4]: (5) h
